The values that follow come from patent publication US20260297060A1, “COMPOUNDS FOR THE DEGRADATION OF MUTANT BRAF” (C4 THERAPEUTICS, INC., priority 2023, published 2026).

This assay concerns A375-NRAS^Q61K cells. Briefly: CTGlo Cell Viability Assay, A375-NRAS^Q61K (A375.11) cells, 96 hours. It is filed as cell-based, human. Conditions: A375.11 (A375-NRAS^Q61K) cells. The method in brief:
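A375 cells carrying BRAF V600E and NRAS Q61K were seeded at 250 cells/well with a 10-point half-log dose series (max 10 μM final). After 96 h at 37 °C, viability was read as ATP luminescence (CellTiter-Glo), background-subtracted and normalized to DMSO (100%). GI50 from 4-parameter fit; Emax is the lowest % viability.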

The mark [1] stands for this setting: Homo sapiens, 96 h, lowest % viability achieved.

The GI50 is the concentration giving 50% growth inhibition. Low values mean more potent growth inhibition, high ones less potent growth inhibition.

`COC1CN(S(=O)(=O)Nc2ccc(F)c(Oc3ccc4ncn([C@H]5COC6(CCN(C7CC8(C7)CN(c7cc9c(cc7F)c(N7CCC(=O)NC7=O)nn9C)C8)CC6)C5)c(=O)c4c3)c2C#N)C1` [Compound 246, N-[2-cyano-3-[3-[(3R)-8-[2-[3-(2,4-dioxohexahydropyrimidin-1-yl)-5-fluoro-1-methyl-indazol-6-yl]-2-azaspiro[3.3]heptan-6-yl]-1-oxa-8-azaspiro[4.5]decan-3-yl]-4-oxo-quinazolin-6-yl]oxy-4-fluoro-phenyl]-3-methoxy-azetidine-1-sulfonamide] came in with a GI50 (Homo sapiens, 96 h) below 1000 nM. This compound had an Emax under setting [1] below 50%.

The compound `CO[C@@H]1CCN(S(=O)(=O)Nc2ccc(F)c(Oc3ccc4ncn([C@H]5COC6(CCN(C7CCC(c8cc9c(cc8F)c(N8CCC(=O)NC8=O)nn9C)CC7)CC6)C5)c(=O)c4c3)c2C#N)C1` (single isomer, unassigned) [Compound 100] showed a GI50 (Homo sapiens, 96 h) below 1000 nM. Under setting [1], this compound had an Emax below 50%.

Compound `CCN(C)S(=O)(=O)Nc1ccc(F)c(Oc2ccc3ncn([C@H]4CCC5(CCN(C6CCC(c7cc8c(cc7F)c(N7CCC(=O)NC7=O)nn8C)CC6)CC5)C4)c(=O)c3c2)c1C#N` (single isomer, unassigned) [Compound 33] registered a GI50 (Homo sapiens, 96 h) below 1000 nM. The same compound registered an Emax under setting [1] below 50%.

Under “Homo sapiens, 96 h”, `CCN(C)S(=O)(=O)Nc1ccc(F)c(Nc2ccc3ncn([C@H]4COC5(CCN(C6CCC(c7cc8c(cc7F)c(N7CCC(=O)NC7=O)nn8C)CC6)CC5)C4)c(=O)c3c2F)c1C#N` (single isomer, unassigned) [Compound 67] yielded a 50% growth inhibitory concentration (GI50) below 1000 nM. Further, under setting [1], the Emax is below 50%.

As for `CCN(C)S(=O)(=O)Nc1ccc(F)c(Oc2ccc3ncn(C4CC5(CCN(C6CCC(c7ccc(NC8CCC(=O)NC8=O)cc7F)CC6)CC5)C4)c(=O)c3c2)c1C#N` (single isomer, unassigned) [Compound 6, 6-[2-cyano-3-[[ethyl(methyl)sulfamoyl]amino]-6-fluoro-phenoxy]-3-[7-[4-[4-[(2,6-dioxo-3-piperidyl)amino]-2-fluoro-phenyl]cyclohexyl]-7-azaspiro[3.5]nonan-2-yl]-4-oxo-quinazoline], the GI50 (Homo sapiens, 96 h) is below 1000 nM. The Emax under setting [1] was below 50%.

Turning to `CCN(C)S(=O)(=O)Nc1ccc(F)c(Oc2ccc3ncn(C4CC5(CCN(C6CCC(c7cc8c(cc7F)c(N7CCC(=O)NC7=O)nn8C)CC6)CC5)C4)c(=O)c3c2)c1F` (single isomer, unassigned) [Compound 178, 3-[7-[4-[3-(2,4-dioxohexahydropyrimidin-1-yl)-5-fluoro-1-methyl-indazol-6-yl]cyclohexyl]-7-azaspiro[3.5]nonan-2-yl]-6-[3-[[ethyl(methyl)sulfamoyl]amino]-2,6-difluoro-phenoxy]-4-oxo-quinazoline], the concentration for 50% growth inhibition (GI50) (Homo sapiens, 96 h) was 1000 to 10000 nM. This compound also came in with an Emax under setting [1] of 50 to 90%.

In turn, `CCN(C)S(=O)(=O)Nc1ccc(F)c(Oc2ccc3ncc([C@H]4COC5(CCN(C6CCC(c7ccc(NC8CCC(=O)NC8=O)cc7F)CC6)CC5)C4)nc3c2)c1C#N` (single isomer, unassigned) [Compound 58] displayed a concentration for 50% growth inhibition (GI50) (Homo sapiens, 96 h) below 1000 nM. Also, the Emax under setting [1] is below 50%.

As for `CCN(C)S(=O)(=O)Nc1ccc(F)c(Oc2ccc3ncn(C4CC5(CCN(C6CCC(c7cc8c(cc7F)c(N7CCC(=O)NC7=O)nn8C)CC6F)CC5)C4)c(=O)c3c2)c1C#N` (single isomer, unassigned) [Compound 86], the concentration for 50% growth inhibition (GI50) is below 1000 nM. In addition, where the note is “lowest % viability achieved”, the “CTGlo A375.11 96 hours Emax” value is “*** (<=50%)”.

The compound `Cn1nc(N2CCC(=O)NC2=O)c2cc(F)c(N3CC4(CC(N5CCC6(CC5)CC(n5cnc7ccc(Oc8c(F)ccc(NS(=O)(=O)N9C[C@H]%10C[C@H]%10C9)c8C#N)cc7c5=O)C6)C4)C3)cc21` (stereo partly drawn) [Compound 277, (1R,5S)-N-[2-cyano-3-[3-[7-[2-[3-(2,4-dioxohexahydropyrimidin-1-yl)-5-fluoro-1-methyl-indazol-6-yl]-2-azaspiro[3.3]heptan-6-yl]-7-azaspiro[3.5]nonan-2-yl]-4-oxo-quinazolin-6-yl]oxy-4-fluoro-phenyl]-3-azabicyclo[3.1.0]hexane-3-sulfonamide] yielded a GI50 (Homo sapiens, 96 h) below 1000 nM. Under setting [1], this compound yielded an Emax of 50 to 90%.
